The subject of experiment [1] is SARS-CoV-2 Delta variant AY.1. Put plainly: microbe, parasite or virus in culture. In kind it is cell-based. To be noted: for mean log10(PFU/ml): AY.1; for IC50: Severe acute respiratory syndrome coronavirus 2, Calu-3, 48 h, read-out: IC50, live SARS-CoV-2 infection AY.1 (Delta).
The subject of experiment [2] is SARS-CoV-2 Omicron variant KP.3.1.1. Put plainly: microbe, parasite or virus in culture. In kind it is cell-based. To be noted: for mean log10(PFU/ml): KP.3.1.1; for IC50: Severe acute respiratory syndrome coronavirus 2, Calu-3, 48 h, read-out: IC50, live SARS-CoV-2 infection KP.3.1.1.

With `CC(C)(C)NC(=O)N1CCN(C(=O)N2C(=O)C(CCCNC(=N)N)C2C(=O)O)CC1` (stereo not drawn) [BMS-262084], the “mean log10(PFU/ml)” value in experiment [1] (concentration 5 nM) is 7.781 log10(PFU/ml); in experiment [1] (concentration 50 nM), 5.891 log10(PFU/ml); in experiment [1] (concentration 500 nM) it was 3.176 log10(PFU/ml); in experiment [1] (concentration 5000 nM), 2.572 log10(PFU/ml); in experiment [1] (concentration 50000 nM), 2.538 log10(PFU/ml); in experiment [2] (concentration 5 nM), 7.893 log10(PFU/ml). For the same molecule, the “mean log10(PFU/ml)” value in experiment [2] (concentration 50 nM) is given as 4.129 log10(PFU/ml); in experiment [2] (concentration 500 nM) it was 1.9 log10(PFU/ml); in experiment [2] (concentration 5000 nM), 1.699 log10(PFU/ml); in experiment [2] (concentration 50000 nM), 1.498 log10(PFU/ml). In addition, the IC50 was found to be 0.00866 µM in experiment [1] and 0.00803 µM in experiment [2].
Consider `CN(C)C(=O)COC(=O)Cc1ccc(OC(=O)c2ccc(NC(=N)N)cc2)cc1` [camostat], for which the “mean log10(PFU/ml)” value in experiment [1] (concentration 5 nM) is on record as 7.732 log10(PFU/ml); in experiment [1] (concentration 50 nM), 7.059 log10(PFU/ml); in experiment [1] (concentration 500 nM) it was 6.615 log10(PFU/ml); in experiment [1] (concentration 5000 nM), 4.492 log10(PFU/ml); in experiment [1] (concentration 50000 nM), 3.6181 log10(PFU/ml); in experiment [2] (concentration 5 nM), 7.955 log10(PFU/ml). Besides, the “mean log10(PFU/ml)” value in experiment [2] (concentration 50 nM) was 6.207 log10(PFU/ml); in experiment [2] (concentration 500 nM), 5.0218 log10(PFU/ml); in experiment [2] (concentration 5000 nM), 1.958 log10(PFU/ml); in experiment [2] (concentration 50000 nM), 1.699 log10(PFU/ml). Further, the IC50 in experiment [1] is 0.0221 µM; in experiment [2], 0.0383 µM.

These data come from paper PMC12307812 (Nature Communications, 2025).
